Tested on: mammal
Conditions: in vivo

Substance: poly-oxygenated aluminum hydroxide [Ox66™]
- negative effects in toxicology studies: does not create any negative effects
